Consider three molecules from patent US20240238238A1, “Isotopically Modified Composition and Therapeutic Uses Thereof” (BioJiva LLC, priority 2018, published 2024).

A value given as a limit tells only on which side of the number the result lay.

Data set [1] concerns Friedreich's ataxia patients. The experiment in a line: Phase I/II double blind, comparator-controlled trial: safety and tolerability. It counts as in vivo, human. As to conditions: for Safety and tolerability: oral, 1.8 or 9.0 g/day, FRDA patients. How it is done:
A phase I/II double blind, comparator-controlled trial with 2 doses of 11,11-D2-linoleic acid ethyl ester in Friedreich's ataxia patients (9 subjects in each cohort) was conducted. Subjects were randomized 2:1 to receive either 11,11-D2-linoleic acid ethyl ester (1.8 or 9.0 g/day), or a matching dose of non-deuterated ethyl linoleate as comparator for 28 days.
(§1) The primary study objectives were to evaluate the safety and tolerability of orally administered 11,11-D2-linoleic acid ethyl ester. Additional study objectives included identifying the PK of 11,11-D2-linoleic acid ethyl ester following single and multiple oral dose administration and establishing an optimum dose of 11,11-D2-linoleic acid ethyl ester. Additional clinical testing consisted of the Friedreich's Ataxia Rating Scale (FARS)-Neurological point (FARS-Neuro), the timed 25-foot walk (T25FW) with an electronic sensor to measure multiaxis components of motion during the study, and cardiopulmonary exercise testing (CPET). The CPET was performed on an electronically braked cycle ergometer (Lode Corival, Groningen, The Netherlands). The protocol included: 5 minutes of rest; 3 minutes of an unloaded cycling warm-up; a progressive protocol with increased workload each minute (5-25 watts based on estimated functional capacity); 2 minutes of an unloaded cycling recovery; and 10 minutes of passive recovery. Heart rate (HR), blood pressure (BP), ratings of perceived exertion (RPE), pulse oximetry, and expired gases were monitored in accord with standard exercise testing guidelines. Scc Pescatello et al., Thompson P. ACSM's Guidelines for Exercise Testing and Prescription. Baltimore, MD: Wolters Kluwer; 2014:114-141. Heart rate was measured by electrocardiogra (Pulse Biomedical, King of Prussia, PA), BP was determined by auscultation, RPE was estimated using the standard 6 to 20 scale, and expired gases were collected through a silicone rubber mask (Hans Rudolph, Shawnee, KS) and analyzed continuously using a metabolic cart (Parvomedics, AQ5 Sandy, UT) Vacumetrics (Ventura, CA). Endpoints of interest were peak oxygen consumption (VO2 peak) and peak workload. All other variables were primarily assessed to monitor patient safety and progress during the exercise trial.
The study included male or female participants, aged 18 to 50 years, with a FRDA onset at equal or less than 25 years of age, homozygosity for GAA repeat expansions in FXN, and FARS-Neuro range of 20 to 90 points. Participants were ambulatory (with or without assistive device), capable of performing other assessments/evaluations, with a body mass index (BMI) equal or less than 34 kg/m^2. Subjects were agreeable to dietary restriction coaching from a diet counselor to lower PUFA dietary intake, for maximal incorporation of 11,11-D2-linoleic acid ethyl ester. Sample size was selected to ensure 12 fully evaluable patients for active treatment and 6 patients for the comparator treatment. It was not powered, but considered adequate for a first-in-human trial of 11,11-D2-linoleic acid ethyl ester.
A randomization schedule was generated before the first dosing period by Agility Clinical, Inc. (Carlsbad, CA) that followed their established standard operating procedures regarding generation, security, and distribution of the randomization scheme. Patients who provided informed consent and met all enrollment criteria were randomized into the study. In order to randomize a patient, the site contacted the unblinded statistician at Agility, Inc to identify which kit should be provided to the patient.
Patients were randomly assigned to receive one of two treatments (11,11,D2-linoleic acid ethyl ester or comparator) following a 2:1 ratio, respectively. The study sponsor, investigators, research pharmacy, and patients were blinded to the subject's treatment. […]

Data set [2] can be described thus: Plasma PK by LC-MS (D2-LA, LA, D2-AA) in the phase I/II trial. The procedure: (§2) PK samples were obtained predose and at 0.5, 1, 1.5, 2, 4, 6, 8, 12, 16, and 24 hours following the first dose and 14, 28, 29, 30, and 31 days following enrollment. The samples taken on Days 29-31 represent Isotopically modified polyunsaturated fatty acid, ester, thioester, amide, or other prodrug thereof (e.g., 11,11,D2-linoleic acid ethyl ester) washout levels. D2-LA, linoleic acid (LA), deuterated arachidonic acid (D2-AA), and arachidonic acid (ARA) concentrations were measured in the samples.
(§3) Plasma concentrations of 11,11-D2-linoleic acid ethyl ester (combined free acid form and ester form) and non-deuterated analogs were determined by liquid chromatography and mass spectrometry (LCMS). Blood was collected in K2EDTA anticoagulant tubes, centrifuged to obtain plasma and red blood cells (RBCs), and frozen until analyzed. The samples were hydrolyzed to free fatty acids and analyzed by high performance LC-MS by Good Laboratory Practice validated methods. Low-intensity D2 and high-intensity H2 signals were measured with high accuracy at Ricerca Biosciences, using an AB SCIEX 6500 tandem-quadrupole MS. The 13C2 isotopomer signal was used as a calibration standard for 11,11,D2-linoleic acid ethyl ester; a polydeuterated internal standard was utilized. The enzymatic elongation/desaturation metabolite, 13,13-D2-arachidonic acid (D2-AA), was also measured, in plasma and red blood cells (RBCs).

The nature of data set [3]: Red blood cell (RBC) concentrations by LC-MS in the phase I/II trial. In kind it is in vivo, human. The procedure: as §2, §3
The ability of 11,11-D2-linoleic acid ethyl ester to enter the cellular membrane compartment was assessed by measuring 11,11-D2-linoleic acid ethyl ester and LA concentration in RBCs during the 28-day period.

The subject of data set [4] is Friedreich's ataxia patients. Put plainly: Cardiopulmonary exercise testing (CPET): peak workload, VO2max. It counts as in vivo, human. The following applies: for Median change from baseline in peak oxygen consumption (VO2max): baseline to day 28, P=0.116.
Description: as §1
Four protocol-defined outcomes (peak workload, VO2max, FARS-Neuro, and T25FW) were examined to explore for possible endpoints for future studies in FRDA. Nonparametric statistics were used to compare the results of those receiving 11,11-D2-linoleic acid ethyl ester to comparator. A modified intention-to-treat (mITT) population was used for the VO2max and peak workload testing analysis because 2 subjects were unable to complete the exercise test. One subject was unable to establish required pedal cadence, and the test was terminated at the conclusion of the warm-up at baseline and day 27 and 1 subject had to stop the day 27 testing because the subject's knees were hitting together and the subject was unable to maintain the RPM. […] After Bonferroni adjustment for testing the four outcomes, the change in peak workload between study drug and comparator remained significant (P=0.032). This Bonferroni adjustment is standard in early-stage trials to analyze both prospective or post-hoc data from multiple exploratory efficacy endpoints in order, to determine the most suitable primary endpoint for subsequent pivotal trials.

For data set [5], the system named is Friedreich's ataxia patients. The experiment in a line: Friedreich's Ataxia Rating Scale-Neurological (FARS-Neuro). It counts as in vivo, human.
Description: as §1, with “The protocol included: 5 minutes of rest; 3 minutes of an unloaded cycling warm-up; a progressive protocol with increased workload each minute (5-25 watts based on estimated functional capacity); 2 minutes of an unloaded cycling recovery; and 10 minutes of passive recovery.” left out, “Scc Pescatello et al., Thompson P. ACSM's Guidelines for Exercise Testing and Prescription. Baltimore, MD: Wolters Kluwer; 2014:114-141.” left out, “Endpoints of interest were peak oxygen consumption (VO2 peak) and peak workload.” left out, “trial. […]” for “trial.”

The subject of data set [6] is Friedreich's ataxia patients. The experiment in a line: Timed 25-foot walk (T25FW) with electronic motion sensor or stopwatch. It counts as in vivo, human.
Description: as §1, with “The protocol included: 5 minutes of rest; 3 minutes of an unloaded cycling warm-up; a progressive protocol with increased workload each minute (5-25 watts based on estimated functional capacity); 2 minutes of an unloaded cycling recovery; and 10 minutes of passive recovery.” left out, “Scc Pescatello et al., Thompson P. ACSM's Guidelines for Exercise Testing and Prescription. Baltimore, MD: Wolters Kluwer; 2014:114-141.” left out, “Endpoints of interest were peak oxygen consumption (VO2 peak) and peak workload.” left out, “trial. […]” for “trial.”

The mark [7] stands for this setting: drug group, cohort 2 (4.5 g BID), 28 days.

Turning to `[2H]C([2H])(/C=C\CCCCC)/C=C\CCCCCCCC(=O)OCC` [11,11-D2-linoleic acid ethyl ester], the “Diarrhea assessed as "possibly related to study drug"” value in data set [1] (setting [7]) is on record as 3 subjects. In addition, the “Diarrhea assessed as "probably related to study drug"” value in data set [1] (setting [7]) turned out to be 1 subject. Further, in data set [1] (high-dose group (cohort 2), BMI 15.4, within the first week), the “Subjects who discontinued the study because of steatorrhea” value is “One”. For the same molecule, the Safety and tolerability result in data set [1] (28 days) is “safe and tolerable”; in data set [1] (28 days, listed as 11,11,D2-linoleic acid ethyl ester) it was “well tolerated”. Moreover, the “Increase of day 28 24-hour AUC when the daily dose was increased 5-fold” value in data set [2] (human, in vivo) is given as “approximately 4 fold”. Besides, the “Time of maximum plasma D2-LA concentration” value in data set [2] (in vivo) lay within 8 to 10 h. Moreover, the “Time to steady state in the plasma and in RBCs” value in data set [2] (in vivo, po) is on record as at most 28 days. For the same molecule, the “RBC concentration of D2-LA as percentage of total LA (D2-LA plus LA), mean” value worked out at 6.52% in data set [3] (cohort 1) and 25.8% in data set [3] (cohort 2). Also, the “Mean RBC concentration of D2-LA” value in data set [3] (day 28, cohort 1 (1.8 g QD)) stood at 14.6 ± 8.7 µg/mL; in data set [3] (day 28, cohort 2 (4.5 g BID)), 26.1 ± 19.2 µg/mL. In addition, in data set [4] (baseline to day 28), the “Change in VO2max between drug and comparator” value is 17.5%. The “Median change from baseline in peak oxygen consumption (VO2max)” value in data set [4] was 0.14 L/min. For the same molecule, the “Change in peak workload in the drug group at study end-point” value in data set [4] (baseline to day 28, mITT) is 25.7%. For the same molecule, the “Improvement in peak workload from baseline to day 28” value in data set [4] (study drug (n=10) versus comparator (n=6), mITT, P=0.008) is on record as 0.16 watts/kg. The “Median decrease in FARS-Neuro” value in data set [5] (baseline to day 28) is on record as 4.75 FARS points. In addition, the “Difference in FARS points decrease between drug and placebo groups” value in data set [5] (baseline to day 28, P=0.348 ITT) was 1.95 FARS points. Also, the “T25FW^−1 time, traditionally measured (by stopwatch)” value in data set [6] (P=0.88) is recorded as “no signal of significance”. Moreover, the “Improvement of stride speed (stride time)^−1” value in data set [6] (electronic motion sensing device on the ankle, 25-foot timed walk, P=0.15 ITT) worked out at 7%.

For the molecule `CCCCC/C=C\C/C=C\CCCCCCCC(=O)OCC` [comparator, ethyl linoleate, reference compound], the “Diarrhea (TEAE)” value in data set [1] (both, human, in vivo, 28 days) is listed as 1 subject. In addition, the “Median change from baseline in peak oxygen consumption (VO2max)” value in data set [4] was -0.02 L/min.

`[2H]C([2H])(/C=C\C/C=C\C/C=C\CCCC(=O)O)/C=C\CCCCC` [D2-AA, 13,13-D2-arachidonic acid]: in data set [2] (high dose (4.5 g BID), 72-hour period after the last dose (day 28)), the “Mean plasma concentration of D2-AA” value is “around 22 μg/mL”. Further, the “Plasma concentration of D2-AA (metabolite)” value was “below or slightly above the LOQ” in data set [2] (high dose, predose baseline and day 1, LOQ 1 μg/mL); “below quantitation” in data set [2] (low dose 11,11-D2-linoleic acid ethyl ester, day 1). In data set [2] (low dose (1.8 g QD), after day 28), the “Mean plasma concentration of D2-AA, maximum at 32 hours after the last dose” value amounted to 5530 ng/mL. Moreover, the “Mean plasma concentration of D2-AA, maximum at 6 hours after the last dose” value in data set [2] (low dose (1.8 g QD), day 28) worked out at 3860 ng/mL.
